Measurements as given in patent US12173007B2, “Imidazopyridazine IL-17 inhibitor compounds” (Janssen Pharmaceutica NV, priority 2021, dated 2024).

Assays:
[1] = target: T1, IL-17A(FLAG-Tagged): IL-17RA(His-Tagged) binding (Homo sapiens, UniProt Q16552, K93Q); assay: IL-17A(FLAG-tagged):IL-17RA(His-tagged) binding disruption Eu-HTRF assay, Protocol 2; conditions: FLAG-IL-17A 1 nM; average if tested more than once
Outline: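 FLAG-tagged IL-17A (1 nM final) was preincubated with compound (2-fold serial dilutions, 22 points) for 1 h at rt in PBS + 0.01% Triton X-100. 10×His-IL-17RA, Eu-anti-FLAG and D2-anti-His in buffer containing KF were then added for 2 h at rt. IC50 came from the 665/615 nm HTRF ratio fitted to a one-site competition model.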

[2] = target: T1, IL-17A(FLAG-Tagged): IL-17RA(His-Tagged) binding; assay: IL-17A(FLAG-tagged):IL-17RA(His-tagged) binding disruption Eu-HTRF assay, Protocol 1; conditions: FLAG-IL-17A 2.5 nM; average if tested more than once
Description: IL-17A(FLAG-Tagged): IL-17RA(His-Tagged) Binding Disruption Eu-HTRF Assay
An antibody directed against the FLAG tag of IL-17A (SEQ ID NO: 1) is labeled with the HTRF donor chromophore (Europium-cryptate). IL-17A is present as a dimer that is “locked into” this quaternary structure due to the formation of loop-spanning […] disulfide bridges. The construct of IL-17RA used in the assay excludes the […] portion of the receptor and is fused to a C-terminal 10×His tag (SEQ ID NO:2). An antibody directed against the His tag of the IL-17RA chimera is labeled with the HTRF acceptor chromophore (“D2”). The fluorescence-resonance energy transfer (FRET) depends on the vicinity of the donor chromophore to the acceptor, and interruption of the binding between the IL-17A and IL-17RA causes the reduction/loss of FRET. Therefore, this assay allows to evaluate the compound effect on the binding IL-17A and IL-17RA by monitoring the fluorescence intensity of donor vs acceptor. The assay was run using either Protocol 1 or Protocol 2 as described below.
Protocol 1. 40 nl of 2-fold serial diluted compound solution for total 22 dilution points is added into each well of a 1536-well, white, low-volume, non-binding plate (Greiner #782904), then 2 μl of FLAG tagged IL-17A at 2×final concentration (2.5 nM) in solution of PBS+0.01% Triton-X100 is added to each well. The assay plate is briefly centrifuged then incubated for 1 h at rt. A mixed solution is prepared containing 2×5 nM 10HIS×IL-17RA, 2×2.5 nM Eu-anti-FLAG (CISBIO), 2×5 nM D2-anti-HIS (CISBIO) in PBS+0.01% Triton-X100+200 mM Potassium Fluoride (Sigma 60238) and 2 μl of mix is added to each well of the assay plate. The plate is briefly centrifuged then incubated for 2 h at rt. The HTRF intensities at the wavelength of donor (620 nm) and acceptor (665 nm) are measured using BMG Pherastar. The ratio between intensities at two wavelengths is calculated and plotted against the compound concentration and the data is fitted to a one-site competition model to yield IC50 of the compound.

[3] = tested on: IL-17A-induced G-CSF production in human normal keratinocyte (NHK); assay: NHK assay: IL-17A-induced G-CSF production in normal human keratinocytes; format: cell-based; conditions: Homo sapiens, Keratinocyte, 24 h, IL-17A 5 ng/mL, G-CSF by HTRF, average if tested more than once
Outline: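 IC50 derives from G-CSF in supernatants, quantified by HTRF from a standard curve, with CellTiter-Glo viability compared to DMSO control. Before a 24 h, 37°C culture of normal human keratinocytes at 3000–4000 cells/well, compound dilutions were preincubated 1 h at rt with human IL-17A (5 ng/mL final), with 0.2% DMSO and 5% FBS.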

[4] = moderate-to-severe HS, seven of nine patients, open-label pilot-trial; cited from earlier work

T1 sequence (Q16552 with tags, fused parts or gaps K93Q): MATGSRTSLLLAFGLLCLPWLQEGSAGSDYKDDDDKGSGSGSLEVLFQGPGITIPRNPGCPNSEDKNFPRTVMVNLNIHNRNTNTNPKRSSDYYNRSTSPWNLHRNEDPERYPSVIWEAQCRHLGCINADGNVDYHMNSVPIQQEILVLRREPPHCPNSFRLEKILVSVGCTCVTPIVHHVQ

Row | IC50 [1] | IC50 [2] | Compound | IC50 [3] | patients achieved HiSCR [4]
1 | < 50 nM | < 50 nM | COC[C@H](c1cnn2cc([C@@H](NC(=O)c3nonc3C3CC3)C3CCC(F)(F)CC3)nc2c1)N1CC(F)(F)CNC1=O [Example 11, 4-Cyclopropyl-N—((S)-(7-((S)-1-(5,5-difluoro-2-oxotetrahydropyrimidin-1(2H)-yl)-2-methoxyethyl)imidazo[1,2-b]pyridazin-2-yl)(4,4-difluorocyclohexyl)methyl)-1,2,5-oxadiazole-3-carboxamide] | < 50 nM | 
2 | < 50 nM | < 50 nM | O=C(N[C@H](c1cn2ncc(CN3CC(F)(F)C(F)(F)CNC3=O)cc2n1)C1CCC(F)(F)CC1)c1nonc1C1CC1 [Example 86, (S)-4-Cyclopropyl-N-((4,4-difluorocyclohexyl)(7-((5,5,6,6-tetrafluoro-2-oxo-1,3-diazepan-1-yl)methyl)imidazo[1,2-b]pyridazin-2-yl)methyl)-1,2,5-oxadiazole-3-carboxamide] | < 50 nM | 
3 | < 50 nM | < 50 nM | Cc1nonc1C(=O)N[C@H](c1cn2ncc([C@@H](COC3CC3)N3CC(F)(F)CNC3=O)cc2n1)C1CCC(F)(F)CC1 [Example 16, N—((S)-(7-((S)-2-Cyclopropoxy-1-(5,5-difluoro-2-oxotetrahydropyrimidin-1(2H)-yl)ethyl)imidazo[1,2-b]pyridazin-2-yl)(4,4-difluorocyclohexyl)methyl)-4-methyl-1,2,5-oxadiazole-3-carboxamide] | < 50 nM | 
4 |  | < 50 nM | CC1CNC(=O)N(Cc2cnn3cc([C@@H](NC(=O)c4nonc4C4CC4)C4CCC(F)(F)CC4)nc3c2)C1 (single isomer, unassigned) [Example 28, 4-Cyclopropyl-N—((S)-(4,4-difluorocyclohexyl)(7-(((S*)-5-methyl-2-oxotetrahydropyrimidin-1(2H)-yl)methyl)imidazo[1,2-b]pyridazin-2-yl)methyl)-1,2,5-oxadiazole-3-carboxamide] | > 100 nM | 
5 |  | 50 to 100 nM | O=C(N[C@H](c1cn2ncc(CN3CCCCNC3=O)cc2n1)C1CCC(F)(F)CC1)c1nonc1C1CC1 [Example 30, (S)-4-Cyclopropyl-N-((4,4-difluorocyclohexyl)(7-((2-oxo-1,3-diazepan-1-yl)methyl)imidazo[1,2-b]pyridazin-2-yl)methyl)-1,2,5-oxadiazole-3-carboxamide] | > 100 nM | 
6 |  | 50 to 100 nM | CC1(C)CNC(=O)N(Cc2cnn3cc([C@@H](NC(=O)c4nonc4C4CC4)C4CCC(F)(F)CC4)nc3c2)C1 [Example 33, (S)-4-Cyclopropyl-N-((4,4-difluorocyclohexyl)(7-((5,5-dimethyl-2-oxotetrahydropyrimidin-1(2H)-yl)methyl)imidazo[1,2-b]pyridazin-2-yl)methyl)-1,2,5-oxadiazole-3-carboxamide] | > 100 nM | 
7 |  | < 50 nM | CC1CCCN(Cc2cnn3cc([C@@H](NC(=O)c4nonc4C4CC4)C4CCC(F)(F)CC4)nc3c2)C(=O)N1 (single isomer, unassigned) [Example 96, 4-Cyclopropyl-N—((S)-(4,4-difluorocyclohexyl)(7-(((R*)-4-methyl-2-oxo-1,3-diazepan-1-yl)methyl)imidazo[1,2-b]pyridazin-2-yl)methyl)-1,2,5-oxadiazole-3-carboxamide] | > 100 nM | 
8 |  |  | secukinumab |  | 78%
9 |  | > 100 nM | CC(C)n1nccc1C(=O)N[C@H](c1cn2ncc(CN3CC(F)(F)CNC3=O)cc2n1)C1CCC(F)(F)CC1 [Example 21, (S)—N-((7-((5,5-Difluoro-2-oxotetrahydropyrimidin-1(2H)-yl)methyl)imidazo[1,2-b]pyridazin-2-yl)(4,4-difluorocyclohexyl)methyl)-1-isopropyl-1H-pyrazole-5-carboxamide] | < 50 nM | 
10 |  | > 100 nM | CC(C)n1ncnc1C(=O)N[C@H](c1cn2ncc(CN3CC(F)(F)CNC3=O)cc2n1)C1CCC(F)(F)CC1 [Example 23, (S)—N-((7-((5,5-Difluoro-2-oxotetrahydropyrimidin-1(2H)-yl)methyl)imidazo[1,2-b]pyridazin-2-yl)(4,4-difluorocyclohexyl)methyl)-1-isopropyl-1H-1,2,4-triazole-5-carboxamide] | > 100 nM | 
11 |  | < 50 nM | N#CC1([C@H](c2cnn3cc([C@@H](NC(=O)c4nonc4C4CC4)C4CCC(F)(F)CC4)nc3c2)N2CC(F)(F)CNC2=O)CCC1 [Example 85, N—((S)-(7-((S)-(1-Cyanocyclobutyl)(5,5-difluoro-2-oxotetrahydropyrimidin-1(2H)-yl)methyl)imidazo[1,2-b]pyridazin-2-yl)(4,4-difluorocyclohexyl)methyl)-4-cyclopropyl-1,2,5-oxadiazole-3-carboxamide] | > 100 nM | 
